Key:
[1] = Toxicity in xenografted mice: body weight, serum liver and kidney indices; type: in vivo, BALB/c nude mice
Text: Given the potent inhibitory effect of LTM-1 on MV-4-11 cell proliferation in vitro, a previously reported xenograft animal model was established to measure the anti-tumor growth and development effects of LTM-1 ([Zhou et al., 2022]). The animal experimental design of this study was reviewed and confirmed by the Ethics Committee of China Pharmaceutical University. The experimental procedures complied with the ARRIVE guidelines (https://arriveguidelines.org/). Female BALB/c nude mice aged 4–6 weeks were purchased from Changzhou Cave Animal Co., Ltd. (Changzhou, China). Mice were housed in a specific pathogen-free (SPF) environment, where the temperature was precisely regulated to 25°C ± 2°C, the relative humidity was kept at 50% ± 5%, and a strict 12-h light-dark cycle was maintained. A 200 μL suspension of MV-4-11 cells (1 × 10^6 cells) was injected subcutaneously into the mice. […] The mice were administered drugs via intraperitoneal injection daily, with a total treatment period of 15 days. Mouse weight and tumor volume were measured every 3 days. The tumor volume was calculated using the formula (c × c × d)/2 (where c represents the smallest diameter, and d represents the largest diameter). When the animals could no longer access food and/or the average tumor diameter exceeded 15 mm, the mice were anesthetized with 2.5% isoflurane and euthanized by cervical dislocation to minimize suffering. In addition, the liver and kidney index levels were measured using an automatic biochemical analyzer to evaluate the toxic effects of LTM-1 on mice.

60 different kinases = experiment: SelectScreen kinase profiling, whole panel; type: biochemical; conditions: ten-point dilution 0.25 μM to 128 μM; read-out: IC50 against each of the 60 evaluated kinases
Protocol: The kinase selectivity analysis of LTM-1 was performed utilizing the SelectScreen Kinase Profiling Service offered by Thermo Fisher Scientific. In a dose-response assay featuring a ten-point dilution series from 0.25 μM to 128 μM, the inhibitory effects of LTM-1 on substrate phosphorylation reactions catalyzed by a panel of kinases were assessed. Consequently, the half-maximal inhibitory concentrations (IC50 values) for each kinase were determined.

[2] = system: MOLT-4, MOLM-16, HAL-01, and HL-60; experiment: MTS cell proliferation assay, other AML cell lines together; type: cell-based; conditions: range over MOLT-4, MOLM-16, HAL-01, HL-60; read-out: IC50 across other AML cell lines
Protocol: (§1) The myeloid leukemia cell lines MV-4-11, MOLT-4, MOLM-16, HL-60, and the human B lymphocyte cell line […] were purchased from the American Type Culture Collection (ATCC, Manassas, VA, United States). The myeloid leukemia cell line HAL-01 was obtained from the Deutsche Sammlung von Mikroorganismen und Zellkulturen GmbH (DSMZ, Braunschweig, Germany). All cells were cultured in IMDM or RPMI -1640 medium supplemented with 10% FBS, 100 U/mL penicillin, and 100 μg/mL streptomycin. The cells were maintained in a humidified incubator with an atmosphere of 5% CO2 at 37°C.
The in vitro anti-proliferative activity of the compounds was determined using the CellTiter 96® AQueous NonRadioactive Cell Proliferation Assay Kit (Promega, Madison, United States) as previously described ([Ji et al., 2017]). In brief, 5–10 × 10^3 cells and 180 μL of medium were first seeded into each well of a 96-well plate. […] Finally, the optical density (OD) was then recorded at 490 nm and 690 nm using a microplate reader from Molecular Devices. […] The IC50 values of the compounds inhibiting cell proliferation were calculated using GraphPad Prism 10 (GraphPad Software Inc., San Diego, CA).

MV-4-11 cells = experiment: MTS cell proliferation assay; type: cell-based; conditions: Homo sapiens, MV4-11, LSD1-addicted MV-4-11 leukemia cells, 72 h
Protocol: as §1
(§2) The in vitro anti-proliferative activity of the compounds was determined using the CellTiter 96® AQueous NonRadioactive Cell Proliferation Assay Kit (Promega, Madison, United States) as previously described ([Ji et al., 2017]). In brief, 5–10 × 10^3 cells and 180 μL of medium were first seeded into each well of a 96-well plate. Subsequently, the cells were exposed to either 0.2% Dimethyl sulfoxide (DMSO, Aladdin Reagent, Shanghai, China) or a serial dilution of the compounds, prepared from a 10 mM stock solution in DMSO, with the final concentration of DMSO being 0.2% for 72 h. 20 μL of MTS reagent was added to each well, and the culture was incubated in the dark at 37°C for 4 h. Finally, the optical density (OD) was then recorded at 490 nm and 690 nm using a microplate reader from Molecular Devices. The proliferation inhibition rate was calculated according to the following formula: inhibition ratio = (OD of DMSO treated wells - OD of compound treated wells)/(OD of DMSO treated wells - OD of blank wells) × 100%. The IC50 values of the compounds inhibiting cell proliferation were calculated using GraphPad Prism 10 (GraphPad Software Inc., San Diego, CA).

RPMI-8226 cells = experiment: MTS cell proliferation assay; type: cell-based; conditions: Homo sapiens, LSD1-non-sensitive RPMI-8226 cells, 72 h
Protocol: as §1, §2

[3] = compared to the vehicle control group

IC50 (60 different kinases): > 10000 nM
IC50 [2]: 190 to 390 nM
IC50 (MV-4-11 cells): 0.16 ± 0.01 µM
IC50 (RPMI-8226 cells): > 100 µM
Compound: O=S(=O)(c1ccc(C(O)CO)c(C(F)(F)F)c1)N1CCc2cc(C3CC3NCC3CCNCC3)ccc21 (stereo not shown) [LTM-1]
body weight of mice ([1]; 10 mg/kg intraperitoneal daily, 15 days, versus vehicle group): no significant differences
liver and kidney function indices ([1]; LTM-1 treated MV-4-11 xenografted mice): did not induce significant changes
alanine aminotransferase (ALT) level in mouse serum [1, 3]: no significant changes
aspartate aminotransferase (AST) level in mouse serum [1, 3]: no significant changes
blood urea nitrogen (BUN) level in mouse serum [1, 3]: no significant changes
creatinine (CRE) level in mouse serum [1, 3]: no significant changes
